Converted amounts (≈) assume the structure as drawn. “And” between values parts separate entries of the source, which are not always exact repeats. Identical values can stand only once. Each block holds one compound with its values, some of them ahead of it.
Legend:
Test in all cases: ≥ marks a high value that may be exact or a test limit, other limits are often not marked, values filed in µg/mL are converted to µM
Escherichia coli JW0013 = system: Escherichia coli JW0013
[1] = system: Pseudomonas aeruginosa Ps4
[2] = system: Escherichia coli DH5alpha
Salmonella typhimurium = system: Salmonella typhimurium
[3] = system: Micrococcus luteus ATCC 9341
Pseudomonas aeruginosa = system: Pseudomonas aeruginosa
Klebsiella pneumoniae = system: Klebsiella pneumoniae
Escherichia coli ML-35p = system: Escherichia coli ML-35p
[4] = system: Escherichia coli ATCC 25922
[5] = system: Pseudomonas aeruginosa ATCC 27853
[6] = system: Pseudomonas aeruginosa PAO1
[7] = system: Staphylococcus aureus ATCC 43300
[8] = system: Pseudomonas aeruginosa CMCCB 10104
[9] = system: Staphylococcus aureus ATCC 25923
Escherichia coli = system: Escherichia coli
Aspergillus fumigatus = system: Aspergillus fumigatus
[10] = system: Candida albicans ATCC 2002
Bacillus subtilis = system: Bacillus subtilis

MIC (Escherichia coli JW0013): 1.37 µM (≈ 3.3 µg/mL)
Structure (SMILES): CC[C@H](C)[C@H](NC(=O)[C@H](CCCN=C(N)N)NC(=O)[C@H](CCCN=C(N)N)NC(=O)[C@@H]1CCCN1C(=O)[C@@H]1CCCN1C(=O)[C@H](CCCN=C(N)N)NC(=O)[C@@H](NC(=O)[C@H](CCCN=C(N)N)NC(=O)[C@@H]1CCCN1C(=O)[C@H](CC(C)C)NC(=O)[C@H](Cc1ccc(O)cc1)NC(=O)[C@@H]1CCCN1C(=O)[C@@H]1CCCN1C(=O)[C@H](CCCCN)NC(=O)[C@H](CC(=O)O)NC(=O)[C@@H](N)C(C)C)[C@@H](C)CC)C(=O)N[C@@H](Cc1ccc(O)cc1)C(=O)N[C@@H](CC(N)=O)C(=O)N[C@@H](CCCN=C(N)N)C(N)=O [VDKPPYLPRIRPPRRIYNR]

MIC [1]: ≥ 52.4 µM
Structure (SMILES): NC(=O)[C@H](CCCN=C(N)N)NC(=O)[C@H](Cc1c[nH]c2ccccc12)NC(=O)[C@H](CCCN=C(N)N)NC(=O)[C@H](Cc1c[nH]c2ccccc12)NC(=O)[C@H](CCCN=C(N)N)NC(=O)[C@H](Cc1c[nH]c2ccccc12)NC(=O)[C@@H](N)Cc1ccccc1 [FWRWRWR]

MIC [2]: 10 µM (≈ 18.8 µg/mL) | MIC (Salmonella typhimurium): 25 µM (≈ 47 µg/mL) | MIC [3]: 0.4 µM (≈ 0.752 µg/mL) | MIC (Pseudomonas aeruginosa): 50 µM (≈ 94 µg/mL) | MIC (Klebsiella pneumoniae): 15 µM (≈ 28.2 µg/mL)
Structure (SMILES): CC[C@H](C)[C@H](N)C(=O)N[C@@H](CC(C)C)C(=O)N1CCC[C@H]1C(=O)N[C@@H](Cc1c[nH]c2ccccc12)C(=O)N[C@@H](CCCCN)C(=O)N[C@@H](Cc1c[nH]c2ccccc12)C(=O)N[C@@H](C)C(=O)N[C@@H](Cc1c[nH]c2ccccc12)C(=O)N[C@@H](Cc1c[nH]c2ccccc12)C(=O)N1CCC[C@H]1C(=O)N[C@@H](Cc1c[nH]c2ccccc12)C(=O)N[C@@H](CCCN=C(N)N)C(=O)N[C@@H](CCCN=C(N)N)C(N)=O [ILPWKWAWWPWRR]

MIC [1]: ≥ 174 µM
Structure (SMILES): CC(C)[C@H](NC(=O)[C@H](CCCCN)NC(=O)[C@H](CCCN=C(N)N)NC(=O)[C@H](Cc1ccccc1)NC(=O)[C@H](CC(N)=O)NC(=O)[C@H](CCCN=C(N)N)NC(=O)[C@H](CCC(N)=O)NC(=O)[C@H](Cc1c[nH]c2ccccc12)NC(=O)[C@@H](N)Cc1ccccc1)C(=O)N[C@@H](CCCN=C(N)N)C(N)=O [FWQRNFRKVR]

MIC (Escherichia coli JW0013): 1.94 µM (≈ 4.8 µg/mL)
Structure (SMILES): CC[C@H](C)[C@H](NC(=O)[C@H](CCCN=C(N)N)NC(=O)[C@H](CCCN=C(N)N)NC(=O)[C@@H]1CCCN1C(=O)[C@@H]1CCCN1C(=O)[C@H](CCCN=C(N)N)NC(=O)[C@@H]1CCCN1C(=O)[C@H](CCCN=C(N)N)NC(=O)[C@@H]1CCCN1C(=O)[C@H](CC(C)C)NC(=O)[C@H](Cc1ccc(O)cc1)NC(=O)[C@@H]1CCCN1C(=O)[C@@H]1CCCN1C(=O)[C@H](CCCCN)NC(=O)[C@H](CC(=O)O)NC(=O)[C@@H](N)Cc1c[nH]c2ccccc12)C(=O)N[C@@H](Cc1ccc(O)cc1)C(=O)N[C@@H](CC(N)=O)C(=O)N[C@@H](CCCN=C(N)N)C(N)=O [WDKPPYLPRPRPPRRIYNR]

MIC [1]: ≥ 142 µM
Structure (SMILES): CC[C@H](C)[C@H](NC(=O)[C@H](CC(N)=O)NC(=O)[C@H](CCCN=C(N)N)NC(=O)[C@H](CCC(N)=O)NC(=O)[C@H](Cc1c[nH]c2ccccc12)NC(=O)[C@@H](N)Cc1ccccc1)C(=O)N[C@@H](CCCN=C(N)N)C(=O)N[C@@H](CCCCN)C(=O)N[C@H](C(=O)N[C@@H](CCCCN)C(=O)N[C@@H](CCCCN)C(=O)N[C@@H](CCCCN)C(=O)N[C@@H](CCCCN)C(N)=O)C(C)C [FWQRNIRKVKKKK]

MIC [1]: ≥ 172 µM
Structure (SMILES): CC[C@H](C)[C@H](NC(=O)[C@H](CC(N)=O)NC(=O)[C@H](CCCN=C(N)N)NC(=O)[C@H](CCC(N)=O)NC(=O)[C@H](Cc1c[nH]c2ccccc12)NC(=O)[C@@H](N)Cc1ccccc1)C(=O)N[C@@H](CCCN=C(N)N)C(=O)N[C@@H](CCCCN)C(=O)N[C@@H](Cc1ccccc1)C(=O)N[C@@H](CCCN=C(N)N)C(N)=O [FWQRNIRKFR]

MIC (Escherichia coli ML-35p): 2.2 µM (≈ 7.44 µg/mL) | MIC [4]: 1.67 µM (≈ 5.64 µg/mL) | MIC [5]: 1.57 µM (≈ 5.29 µg/mL) | MIC [6]: 3.81 µM (≈ 12.9 µg/mL) | MIC [7]: > 30 µM | MIC [8]: 2.17 µM (≈ 7.34 µg/mL) | MIC [9]: > 30 µM | MIC (Escherichia coli): 1.05 µM and 1.17 µM
Structure (SMILES): CC[C@H](C)[C@H](NC(=O)[C@@H](NC(=O)[C@@H](NC(=O)[C@H](CCCN=C(N)N)NC(=O)[C@H](Cc1cnc[nH]1)NC(=O)[C@H](Cc1ccccc1)NC(=O)[C@H](Cc1cnc[nH]1)NC(=O)CNC(=O)[C@H](CCCCN)NC(=O)[C@H](CO)NC(=O)[C@H](CCCCN)NC(=O)[C@H](CC(=O)O)NC(=O)[C@H](Cc1cnc[nH]1)NC(=O)[C@H](CC(=O)O)NC(=O)[C@H](CCCN=C(N)N)NC(=O)CNC(=O)[C@H](CCC(=O)O)NC(=O)[C@H](CCC(N)=O)NC(=O)[C@H](CCCCN)NC(=O)[C@H](CC(N)=O)NC(=O)[C@@H](N)Cc1cnc[nH]1)C(C)C)C(C)C)C(=O)N[C@@H](Cc1cnc[nH]1)C(=O)N[C@@H](Cc1cnc[nH]1)C(=O)N[C@@H](CCCCN)C(=O)NCC(=O)NCC(=O)N[C@@H](CCCCN)C(=O)N[C@@H](C)C(=O)N[C@@H](Cc1cnc[nH]1)C(=O)O [HNKQEGRDHDKSKGHFHRVVIHHKGGKAH]

MIC (Aspergillus fumigatus): 18 µM (≈ 39 µg/mL)
Structure (SMILES): CC(C)[C@H](NC(=O)[C@@H](N)CCCCN)C(=O)N[C@@H](C)C(=O)N[C@@H](CCCCN)C(=O)N[C@@H](CCC(N)=O)C(=O)N[C@@H](CCC(=O)O)C(=O)N[C@@H](CCCCN)C(=O)N[C@@H](CCCCN)C(=O)N[C@@H](CCCCN)C(=O)N[C@@H](CCCCN)C(=O)N[C@@H](CCCCN)C(=O)N[C@H](C(=O)NCC(=O)N[C@@H](CCCN=C(N)N)C(=O)N[C@@H](C)C(=O)N[C@@H](CCCCN)C(=O)N[C@@H](CCCN=C(N)N)C(=O)N[C@@H](CCCN=C(N)N)C(=O)O)[C@@H](C)O [KVAKQEKKKKKTGRAKRR]

MIC [3]: 0.8 µM (≈ 1.46 µg/mL)
Structure (SMILES): CC[C@H](C)[C@H](N)C(=O)N[C@@H](CC(C)C)C(=O)N1CCC[C@H]1C(=O)N[C@@H](Cc1c[nH]c2ccccc12)C(=O)N[C@@H](CCCCN)C(=O)N[C@@H](Cc1c[nH]c2ccccc12)C(=O)N1CCC[C@H]1C(=O)N[C@@H](Cc1c[nH]c2ccccc12)C(=O)N[C@@H](Cc1c[nH]c2ccccc12)C(=O)N1CCC[C@H]1C(=O)N[C@@H](Cc1c[nH]c2ccccc12)C(=O)N[C@@H](CCCN=C(N)N)C(=O)N[C@@H](C)C(N)=O [ILPWKWPWWPWRA]

MIC [1]: ≥ 201 µM
Structure (SMILES): CC[C@H](C)[C@H](NC(=O)[C@H](CC(N)=O)NC(=O)[C@H](CCCN=C(N)N)NC(=O)[C@H](CCC(N)=O)NC(=O)[C@H](Cc1c[nH]c2ccccc12)NC(=O)[C@@H](N)Cc1ccccc1)C(=O)N[C@@H](CCCCN)C(=O)N[C@H](C(=O)N[C@@H](CCCN=C(N)N)C(N)=O)C(C)C [FWQRNIKVR]

MIC (Escherichia coli ML-35p): 7.05 µM (≈ 25 µg/mL) | MIC [10]: 4.23 µM (≈ 15 µg/mL) | MIC (Bacillus subtilis): 5.28 µM (≈ 18.7 µg/mL) | MIC [5]: > 28.2 µM | MIC [9]: 4.65 µM (≈ 16.5 µg/mL)
Structure (SMILES): CC[C@H](C)[C@H](NC(=O)CNC(=O)[C@H](CCSC)NC(=O)CNC(=O)[C@H](C)NC(=O)[C@H](CO)NC(=O)[C@H](CCCCN)NC(=O)[C@H](C)NC(=O)[C@H](CC(C)C)NC(=O)[C@H](CC(=O)O)NC(=O)[C@@H](NC(=O)[C@H](C)NC(=O)[C@@H](NC(=O)[C@@H](NC(=O)[C@H](CCCCN)NC(=O)[C@@H](NC(=O)[C@H](CCCCN)NC(=O)[C@H](CC(=O)O)NC(=O)[C@H](CCCN=C(N)N)NC(=O)[C@@H](NC(=O)[C@@H](N)CO)[C@@H](C)CC)[C@@H](C)CC)[C@@H](C)O)[C@@H](C)CC)[C@@H](C)CC)C(=O)N[C@@H](CC(C)C)C(=O)N[C@@H](CCCCN)C(=O)N[C@H](C(=O)N[C@@H](CC(C)C)C(=O)N[C@H](C(=O)N[C@H]1CSSC[C@@H](C(=O)O)NC(=O)[C@H](CO)NC(=O)[C@H](CCCCN)NC(=O)[C@H](CC(=O)O)NC(=O)[C@H](CC(C)C)NC(=O)[C@H](CCCCN)NC1=O)[C@@H](C)CC)[C@@H](C)O [SIRDKIKTIAIDLAKSAGMGILKTLICKLDKSC]

MIC [3]: 0.2 µM (≈ 0.359 µg/mL)
Structure (SMILES): CC(C)C[C@H](N)C(=O)N1CCC[C@H]1C(=O)N[C@@H](Cc1c[nH]c2ccccc12)C(=O)N[C@@H](CCCCN)C(=O)N[C@@H](Cc1c[nH]c2ccccc12)C(=O)N1CCC[C@H]1C(=O)N[C@@H](Cc1c[nH]c2ccccc12)C(=O)N[C@@H](Cc1c[nH]c2ccccc12)C(=O)N1CCC[C@H]1C(=O)N[C@@H](Cc1c[nH]c2ccccc12)C(=O)N[C@@H](CCCN=C(N)N)C(=O)N[C@@H](CCCN=C(N)N)C(N)=O [LPWKWPWWPWRR]

MIC (Escherichia coli JW0013): 2.03 µM (≈ 4.8 µg/mL)
Structure (SMILES): CC[C@H](C)[C@H](NC(=O)[C@H](CCCN=C(N)N)NC(=O)[C@H](CCCN=C(N)N)NC(=O)[C@@H]1CCCN1C(=O)[C@@H]1CCCN1C(=O)[C@H](CCCN=C(N)N)NC(=O)[C@@H]1CCCN1C(=O)[C@H](CCCN=C(N)N)NC(=O)[C@@H]1CCCN1C(=O)[C@H](CC(C)C)NC(=O)[C@H](Cc1cnc[nH]1)NC(=O)[C@@H]1CCCN1C(=O)[C@@H]1CCCN1C(=O)[C@H](CCCCN)NC(=O)[C@H](CC(=O)O)NC(=O)[C@@H](N)C(C)C)C(=O)N[C@@H](Cc1ccc(O)cc1)C(=O)N[C@@H](CC(N)=O)C(=O)N[C@@H](CCCN=C(N)N)C(N)=O [VDKPPHLPRPRPPRRIYNR]
